Measurements as given in patent US20140179609A1, “Whey protein hydrolysate containing tryptophan peptide consisting of alpha lactalbumin and the use thereof” (Technische Universität Dresden, priority 2008, published 2014).
Where a SMILES comes first, the peptide text is derived from it.

Legend:
[1] = system: spontaneously hypertensive rats; experiment: Feeding tests on spontaneously hypertensive rats; type: in vivo, rat
Excerpt: Administered was a preparation that contained the peptides according to the invention (PP), feed with intact whey protein (MP) as well as, as a control, a rat feed with captopril, a known ACE inhibiting agent as well as a placebo.
The basic importance of whey protein hydrolysates containing the tryptophan-containing peptides of the present invention for affecting the arterial blood pressure was objectified in animal tests on spontaneously hypertensive rats (FIG. 4). Here, the whey protein hydrolysate in comparison to a control diet caused a significant lowering of systolic blood pressure by 21±6 mm Hg after 7 weeks. Feeding captopril (ACE inhibitor of the first generation) lowered over the same time period the blood pressure by 28±7 mm Hg.
This implies comprehensive heart-protective and vessel-protective effects caused by the whey protein hydrolysate.

ACE = molecular target: T1, ACE (Oryctolagus cuniculus, UniProt P12822); experiment: ACE activity test (substrate HHL, hippuric acid quantified by RP HPLC); type: biochemical, rabbit; details: for IC50: dipeptides from Bachem, test as in Example 2, read-out: IC50 [μM] ACE-inhibiting activity; for ACE inhibiting action (in words): samples heat-treated at 100° C. for 10 minutes
T1 construct: The employed ACE is the rabbit lung enzyme obtained from Sigma-Aldrich; purchased Sigma-Aldrich; host or cells: rabbit lung (tissue-derived enzyme)
T1 sequence (P12822 34-1310): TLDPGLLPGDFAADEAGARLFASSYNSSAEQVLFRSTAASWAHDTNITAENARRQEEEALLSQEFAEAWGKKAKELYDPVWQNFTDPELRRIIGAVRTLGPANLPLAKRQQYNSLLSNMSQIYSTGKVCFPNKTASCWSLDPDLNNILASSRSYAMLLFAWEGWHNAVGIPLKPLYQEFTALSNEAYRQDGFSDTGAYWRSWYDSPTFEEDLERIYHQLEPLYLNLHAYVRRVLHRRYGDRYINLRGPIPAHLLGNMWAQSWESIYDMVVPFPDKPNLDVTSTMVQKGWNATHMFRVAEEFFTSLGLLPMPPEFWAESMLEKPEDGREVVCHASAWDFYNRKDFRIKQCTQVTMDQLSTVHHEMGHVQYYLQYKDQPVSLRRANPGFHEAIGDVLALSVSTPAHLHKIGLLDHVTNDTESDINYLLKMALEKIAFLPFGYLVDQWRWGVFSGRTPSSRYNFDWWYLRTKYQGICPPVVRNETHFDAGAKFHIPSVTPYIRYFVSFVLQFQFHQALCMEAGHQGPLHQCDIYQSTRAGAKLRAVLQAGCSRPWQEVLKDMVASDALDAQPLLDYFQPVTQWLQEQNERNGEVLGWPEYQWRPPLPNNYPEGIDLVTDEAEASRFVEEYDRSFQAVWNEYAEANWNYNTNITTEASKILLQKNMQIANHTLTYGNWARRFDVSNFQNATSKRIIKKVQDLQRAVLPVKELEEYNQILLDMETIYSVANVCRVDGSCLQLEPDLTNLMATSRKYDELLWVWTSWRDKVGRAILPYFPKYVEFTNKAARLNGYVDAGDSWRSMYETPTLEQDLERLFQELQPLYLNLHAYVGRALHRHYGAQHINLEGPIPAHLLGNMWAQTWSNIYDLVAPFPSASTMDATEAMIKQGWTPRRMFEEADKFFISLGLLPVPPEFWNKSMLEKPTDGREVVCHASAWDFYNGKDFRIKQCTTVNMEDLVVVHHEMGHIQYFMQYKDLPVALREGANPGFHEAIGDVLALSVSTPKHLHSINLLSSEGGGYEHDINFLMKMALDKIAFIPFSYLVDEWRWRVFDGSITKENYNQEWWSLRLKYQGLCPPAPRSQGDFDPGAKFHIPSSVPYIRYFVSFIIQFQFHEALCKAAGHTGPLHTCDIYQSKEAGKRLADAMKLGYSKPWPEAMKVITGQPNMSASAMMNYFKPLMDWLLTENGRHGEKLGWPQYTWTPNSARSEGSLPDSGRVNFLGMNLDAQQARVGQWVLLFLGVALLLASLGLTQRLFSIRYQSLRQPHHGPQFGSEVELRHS
Method: The determination of the ACE activity of the protein hydrolysates was carried out similar to a test disclosed by Cushman and Cheung in […] (Cushman, D. W. and Cheung, H.-S. Spectrophotometric Assay and Properties of Angiotensin-Converting Enzyme of Rabbit Lung, Biochemical Pharmacology, 1971, 20, 1637-1648). However, several modifications were carried out. The employed ACE is the rabbit lung enzyme obtained from Sigma-Aldrich. As a substrate N-benzoyl-glycyl-L-histidyl-L-leucin (HHL) was used which is considered to be analog to the natural substrate angiotensin I. ACE catalyzes the hydrolysis to L-histidyl-L-leucin (HL) and N-benzoyl-glycin (hippuric acid):
Since hippuric acid is UV-active (λmax=228 nm), it is possible, based on its contents determined by RP HPLC, to define the conversion rate and thus the enzyme activity. By means of a concentration series of the respective inhibitor solution, the inhibitor concentration can be determined that is required for lowering the ACE activity by one half (IC50).
In each series of measurements two enzyme blind values were carried along in which, in place of the sample solution, the same volume of double distilled water had been added. The blind value corresponds to 100% ACE activity. Calculation of the IC50 values was done by the software program SigmaPlot 5.0.
In addition to the samples that had been incubated for different lengths of time, also a blind value sample was analyzed that contained all employed enzymes and the whey protein powder in the same concentration as the hydrolysis samples. However, after addition of all substances, the enzymatic action was inactivated immediately by 10-minute incubation at 100° C. Also, possible effects by individual compounds on ACE were tested. For this purpose, the enzymes were inactivated and individually tested with respect to possible ACE inhibiting action. The same procedure was carried out with the whey protein powder. Whey protein powder that was not heat-treated was also tested with respect to its inhibiting action. For the determination of the IC50 value of the hydrolysis samples several concentrations were used in the ACE activity test. A protein concentration of 1000 mg protein/I was used as the basis. This parent solution was diluted 1:2, 1:5, 1:10, 1:20, 1:50, 1:100 and all solutions were tested with respect to their ACE inhibiting effect. Evaluation was also done with SigmaPlot 5.0.
In Table 12 the parameters measured by RP HPLC and LC-ESI-TOF-MS for the dipeptides according to the invention are listed. The Table contains also the IC50 values that were obtained for the dipeptides. […]

proteases = experiment: Stability of the dipeptides during enzymatic hydrolysis of whey protein (detection by GPC / LC-ESI-TOF-MS); details: hydrolysis with trypsin, Alcalase, Flavourzyme; found by GPC in all hydrolysates after three hours
Method: The whey protein Milei60 was hydrolyzed enzymatically by proteolytically acting enzymes, i.e., trypsin obtained from porcine pancreas (EC 3.4.21.4) as well as two further proteases, i.e., Alcalase® (Bacillus licheniformis) and Flavourzyme (Aspergillus oryzae). The following Table illustrates how hydrolysis is carried out.
The release of dipeptides Trp-Leu and Ile-Trp according to the invention during the course of hydrolysis was analyzed by GPC and LC-ESI-TOF-MS (liquid chromatography/electrospray ionization time of flight mass spectrometry).
In GPC the identification of the dipeptides was carried out by comparison with peaks of the standard peptides that were carried along.
The strongly ACE-inhibiting peptide Ile-Trp was detected unequivocally in the hydrolysates after a hydrolysis duration of three hours. Therefore, it appears to be accessible for the proteases only after a certain time has lapsed; this is true also for Trp-Leu.

Molecule: C[C@H](CS)C(=O)N1CCC[C@H]1C(=O)O [captopril]
- lowering of systolic blood pressure ([1]; after 7 weeks, in comparison to a control diet): 28±7 mm Hg
- reduced heart mass ([1]; in comparison to controls): 16%

Molecule: CC[C@H](C)[C@H](N)C(=O)N[C@@H](Cc1c[nH]c2ccccc12)C(=O)O [Ile-Trp]
- IC50 (ACE): 0.7 µM
- stability with respect to further digestion to the amino acids (proteases): stable with respect to further digestion to the amino acids

Molecule: CC(C)C[C@H](NC(=O)[C@@H](N)Cc1c[nH]c2ccccc12)C(=O)O [Trp-Leu] (H-Trp-Leu-OH; N-terminus and C-terminus assumed)
- IC50 (ACE): 10 µM
- stability with respect to further digestion to the amino acids (proteases): stable with respect to further digestion to the amino acids

B1: Alcalase: protease from Bacillus licheniformis, heat-inactivated hydrolysis enzyme (protein, UniProt P00780 106-379, looked up)
Subtilisin Carlsberg: AQTVPYGIPLIKADKVQAQGFKGANVKVAVLDTGIQASHPDLNVVGGASFVAGEAYNTDGNGHGTHVAGTVAALDNTTGVLGVAPSVSLYAVKVLNSSGSGSYSGIVSGIEWATTNGMDVINMSLGGASGSTAMKQAVDNAYAKGVVVVAAAGNSGSSGNTNTIGYPAKYDSVIAVGAVDSNSNRASFSSVGAELEVMAPGAGVYSTYPTNTYATLNGTSMASPHVAGAAALILSKHPNLSASQVRNRLSSTATYLGSSFYYGKGLINVEAAAQ
- ACE inhibiting action (in words) (ACE): neither the inactivated enzymes, individually or as a mixture, nor the protein had an effect on ACE

B2: trypsin: trypsin obtained from porcine pancreas (EC 3.4.21.4), heat-inactivated hydrolysis enzyme (protein, UniProt P00761 9-231, looked up)
Trypsin: IVGGYTCAANSIPYQVSLNSGSHFCGGSLINSQWVVSAAHCYKSRIQVRLGEHNIDVLEGNEQFINAAKIITHPNFNGNTLDNDIMLIKLSSPATLNSRVATVSLPRSCAAAGTECLISGWGNTKSSGSSYPSLLQCLKAPVLSDSSCKSSYPGQITGNMICVGFLEGGKDSCQGDSGGPVVCNGQLQGIVSWGYGCAQKNKPGVYTKVCNYVNWIQQTIAAN
- ACE inhibiting action (in words) (ACE): neither the inactivated enzymes, individually or as a mixture, nor the protein had an effect on ACE
